According to ChEMBL document CHEMBL4804286, “3-amino-4-(4-(4 (dimethylcarbamoyl) phenyl)-1,4-diazepan-1-yl) thieno [2,3-b] pyridine-2-carboxamide for use in cancer therapy and formulations comprising the same” (2020):
Values joined by “and” are separate entries in the source; they are usually repeats but may differ in a detail not shown here. Equal entries are not always repeated. Active and inactive are the calls of the source. No cut-off for these calls is given here.

Legend:
[1] = target: Ankyrin repeat and protein kinase domain-containing protein 1 (Homo sapiens) (UniProt Q8NFD2); test: Inhibition of human ANKK1 assessed as percent of control at 2000 nM by KINOMEscan assay relative to control; set-up: scale not given: the % may be the effect or the level left
[2] = target: Serine/threonine-protein kinase Nek5 (Homo sapiens) (UniProt Q6P3R8); test: Inhibition of human NEK5 assessed as percent of control at 2000 nM by KINOMEscan assay relative to control; set-up: scale not given: the % may be the effect or the level left
Myc-CaP = test: Inhibition of colony formation in murine castration-resistant Myc-CaP cells at 1 uM in presence of 5 uM enzalutamide by clonogenic assay relative to control; assay type: functional; conditions: Mus musculus
[3] = target: Activin receptor type-2B (Homo sapiens) (UniProt Q13705); test: Inhibition of human ACVR2B assessed as percent of control at 2000 nM by KINOMEscan assay relative to control; set-up: scale not given: the % may be the effect or the level left
[4] = target: Insulin-like growth factor 1 receptor (Homo sapiens) (UniProt P08069); test: Inhibition of human IGF1R assessed as percent of control at 2000 nM by KINOMEscan assay relative to control; set-up: scale not given: the % may be the effect or the level left
[5] = target: Serine/threonine-protein kinase Nek4 (Homo sapiens) (UniProt P51957); test: Inhibition of human NEK4 assessed as percent of control at 2000 nM by KINOMEscan assay relative to control; set-up: scale not given: the % may be the effect or the level left
Chain of Serine/threonine-protein kinase Nek4 (Homo sapiens) (P51957 whole entry, looked up): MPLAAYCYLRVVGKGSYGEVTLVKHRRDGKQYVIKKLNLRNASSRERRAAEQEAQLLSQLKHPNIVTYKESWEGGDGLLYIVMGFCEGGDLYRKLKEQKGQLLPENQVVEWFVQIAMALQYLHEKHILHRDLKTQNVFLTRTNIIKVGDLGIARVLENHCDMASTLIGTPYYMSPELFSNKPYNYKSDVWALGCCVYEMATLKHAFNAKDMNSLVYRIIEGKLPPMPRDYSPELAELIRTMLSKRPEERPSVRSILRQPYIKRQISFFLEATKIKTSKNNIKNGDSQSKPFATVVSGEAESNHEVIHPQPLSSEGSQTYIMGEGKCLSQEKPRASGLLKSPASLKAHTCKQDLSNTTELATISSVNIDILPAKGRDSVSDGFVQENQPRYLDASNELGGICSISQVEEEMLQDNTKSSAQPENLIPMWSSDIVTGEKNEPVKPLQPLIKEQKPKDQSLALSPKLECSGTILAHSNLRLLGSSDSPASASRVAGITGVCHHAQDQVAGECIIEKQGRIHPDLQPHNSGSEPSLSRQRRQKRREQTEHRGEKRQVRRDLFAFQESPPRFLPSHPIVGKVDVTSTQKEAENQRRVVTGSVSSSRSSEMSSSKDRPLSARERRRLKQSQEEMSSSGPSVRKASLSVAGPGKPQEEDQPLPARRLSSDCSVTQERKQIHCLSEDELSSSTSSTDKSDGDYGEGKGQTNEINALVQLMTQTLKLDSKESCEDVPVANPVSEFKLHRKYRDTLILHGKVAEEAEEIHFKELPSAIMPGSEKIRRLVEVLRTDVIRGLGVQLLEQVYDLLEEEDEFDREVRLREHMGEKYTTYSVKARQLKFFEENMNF

[6] = test system: Tyrosine-protein kinase ABL1 (Homo sapiens), P00519 [Q252H]; test: Inhibition of phosphorylated human ABL1 Q252H mutant assessed as percent of control at 2000 nM by KINOMEscan assay relative to control; set-up: scale not given: the % may be the effect or the level left
[7] = target: Hepatocyte growth factor receptor (Homo sapiens) (UniProt P08581); test: Inhibition of human MET assessed as percent of control at 2000 nM by KINOMEscan assay relative to control; set-up: scale not given: the % may be the effect or the level left
Chain of Hepatocyte growth factor receptor (Homo sapiens) (P08581 whole entry): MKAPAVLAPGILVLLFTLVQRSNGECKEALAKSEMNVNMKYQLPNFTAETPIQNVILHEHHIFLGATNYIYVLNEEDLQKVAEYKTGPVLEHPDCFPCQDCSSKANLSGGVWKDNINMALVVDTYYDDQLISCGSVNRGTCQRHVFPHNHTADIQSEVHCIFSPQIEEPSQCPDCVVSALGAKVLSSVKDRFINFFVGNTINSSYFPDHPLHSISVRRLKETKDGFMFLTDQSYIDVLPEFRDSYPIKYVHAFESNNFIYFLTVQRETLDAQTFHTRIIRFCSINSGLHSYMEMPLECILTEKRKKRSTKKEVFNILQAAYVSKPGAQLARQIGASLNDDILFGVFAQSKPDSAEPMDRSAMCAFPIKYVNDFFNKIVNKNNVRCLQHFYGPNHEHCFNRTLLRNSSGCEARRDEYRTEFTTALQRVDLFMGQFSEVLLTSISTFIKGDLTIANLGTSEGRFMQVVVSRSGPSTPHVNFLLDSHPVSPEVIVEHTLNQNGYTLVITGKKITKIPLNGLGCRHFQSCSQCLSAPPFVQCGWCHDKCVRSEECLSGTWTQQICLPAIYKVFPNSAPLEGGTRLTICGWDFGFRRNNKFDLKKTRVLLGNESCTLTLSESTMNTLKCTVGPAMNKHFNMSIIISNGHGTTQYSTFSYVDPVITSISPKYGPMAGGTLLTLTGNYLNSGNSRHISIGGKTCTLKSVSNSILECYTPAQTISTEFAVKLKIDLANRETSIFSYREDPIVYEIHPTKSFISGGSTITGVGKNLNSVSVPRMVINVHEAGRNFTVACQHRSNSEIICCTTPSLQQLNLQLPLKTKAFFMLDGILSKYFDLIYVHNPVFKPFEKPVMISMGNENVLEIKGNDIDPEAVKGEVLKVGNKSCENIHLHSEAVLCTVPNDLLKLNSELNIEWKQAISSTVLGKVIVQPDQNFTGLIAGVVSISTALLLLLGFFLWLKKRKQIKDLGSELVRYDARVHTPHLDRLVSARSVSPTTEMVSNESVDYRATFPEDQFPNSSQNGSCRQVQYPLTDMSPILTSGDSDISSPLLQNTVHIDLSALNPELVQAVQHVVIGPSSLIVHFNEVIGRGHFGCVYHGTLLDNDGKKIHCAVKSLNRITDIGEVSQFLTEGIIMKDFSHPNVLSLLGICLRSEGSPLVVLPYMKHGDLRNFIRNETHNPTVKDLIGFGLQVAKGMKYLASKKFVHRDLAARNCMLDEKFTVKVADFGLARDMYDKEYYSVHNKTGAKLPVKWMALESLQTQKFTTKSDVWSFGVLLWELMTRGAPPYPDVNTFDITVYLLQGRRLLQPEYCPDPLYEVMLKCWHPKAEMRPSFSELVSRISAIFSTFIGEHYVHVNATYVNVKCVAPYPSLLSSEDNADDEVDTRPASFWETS

[8] = target: Rhodopsin kinase GRK7 (Homo sapiens) (UniProt Q8WTQ7); test: Inhibition of human GRK7 assessed as percent of control at 2000 nM by KINOMEscan assay relative to control; set-up: scale not given: the % may be the effect or the level left
[9] = target: cAMP-dependent protein kinase catalytic subunit PRKX (Homo sapiens) (UniProt P51817); test: Inhibition of human PRKX assessed as percent of control at 2000 nM by KINOMEscan assay relative to control; set-up: scale not given: the % may be the effect or the level left
[10] = target: RAF proto-oncogene serine/threonine-protein kinase (Homo sapiens) (UniProt P04049); test: Inhibition of human RAF1 assessed as percent of control at 2000 nM by KINOMEscan assay relative to control; set-up: scale not given: the % may be the effect or the level left
[11] = target: Ephrin type-A receptor 3 (Homo sapiens) (UniProt P29320); test: Inhibition of human EPHA3 assessed as percent of control at 2000 nM by KINOMEscan assay relative to control; set-up: scale not given: the % may be the effect or the level left
[12] = target: Ribosomal protein S6 kinase alpha-3 (Homo sapiens) (UniProt P51812); test: Inhibition of human C-terminal RSK2 kinase domain 2 assessed as percent of control at 2000 nM by KINOMEscan assay relative to control; set-up: scale not given: the % may be the effect or the level left
[13] = target: Mitogen-activated protein kinase 3 (Homo sapiens) (UniProt P27361); test: Inhibition of human ERK1 assessed as percent of control at 2000 nM by KINOMEscan assay relative to control; set-up: scale not given: the % may be the effect or the level left
Chain of Mitogen-activated protein kinase 3 (Homo sapiens) (P27361 whole entry): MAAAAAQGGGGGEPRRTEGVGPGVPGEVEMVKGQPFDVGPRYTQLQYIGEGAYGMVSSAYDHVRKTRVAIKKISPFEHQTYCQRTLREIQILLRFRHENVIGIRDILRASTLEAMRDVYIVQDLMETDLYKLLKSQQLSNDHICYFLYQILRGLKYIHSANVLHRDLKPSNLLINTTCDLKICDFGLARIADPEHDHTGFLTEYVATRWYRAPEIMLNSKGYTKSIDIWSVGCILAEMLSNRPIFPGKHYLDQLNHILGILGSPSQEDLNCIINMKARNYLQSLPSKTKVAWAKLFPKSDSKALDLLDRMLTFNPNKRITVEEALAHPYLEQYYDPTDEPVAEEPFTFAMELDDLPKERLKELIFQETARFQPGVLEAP

[14] = target: Receptor-interacting serine/threonine-protein kinase 1 (Homo sapiens) (UniProt Q13546); test: Inhibition of human RIPK1 assessed as percent of control at 2000 nM by KINOMEscan assay relative to control; set-up: scale not given: the % may be the effect or the level left
[15] = target: Mitogen-activated protein kinase 14 (Homo sapiens) (UniProt Q16539); test: Inhibition of human p38-alpha assessed as percent of control at 2000 nM by KINOMEscan assay relative to control; set-up: scale not given: the % may be the effect or the level left
[16] = target: Fibroblast growth factor receptor 1 (Homo sapiens) (UniProt P11362); test: Inhibition of human FGFR1 assessed as percent of control at 2000 nM by KINOMEscan assay relative to control; set-up: scale not given: the % may be the effect or the level left
[17] = target: Casein kinase I isoform epsilon (Homo sapiens) (UniProt P49674); test: Inhibition of human CSNK1E assessed as percent of control at 2000 nM by KINOMEscan assay relative to control; set-up: scale not given: the % may be the effect or the level left; conditions: INHIBITOR
[18] = target: Ephrin type-A receptor 5 (Homo sapiens) (UniProt P54756); test: Inhibition of human EPHA5 assessed as percent of control at 2000 nM by KINOMEscan assay relative to control; set-up: scale not given: the % may be the effect or the level left
[19] = target: Non-receptor tyrosine-protein kinase TYK2 (Homo sapiens) (UniProt P29597); test: Inhibition of human TYK2 JH1 catalytic domain assessed as percent of control at 2000 nM by KINOMEscan assay relative to control; set-up: scale not given: the % may be the effect or the level left
Chain of Non-receptor tyrosine-protein kinase TYK2 (Homo sapiens) (P29597 whole entry, the tested form may be a part): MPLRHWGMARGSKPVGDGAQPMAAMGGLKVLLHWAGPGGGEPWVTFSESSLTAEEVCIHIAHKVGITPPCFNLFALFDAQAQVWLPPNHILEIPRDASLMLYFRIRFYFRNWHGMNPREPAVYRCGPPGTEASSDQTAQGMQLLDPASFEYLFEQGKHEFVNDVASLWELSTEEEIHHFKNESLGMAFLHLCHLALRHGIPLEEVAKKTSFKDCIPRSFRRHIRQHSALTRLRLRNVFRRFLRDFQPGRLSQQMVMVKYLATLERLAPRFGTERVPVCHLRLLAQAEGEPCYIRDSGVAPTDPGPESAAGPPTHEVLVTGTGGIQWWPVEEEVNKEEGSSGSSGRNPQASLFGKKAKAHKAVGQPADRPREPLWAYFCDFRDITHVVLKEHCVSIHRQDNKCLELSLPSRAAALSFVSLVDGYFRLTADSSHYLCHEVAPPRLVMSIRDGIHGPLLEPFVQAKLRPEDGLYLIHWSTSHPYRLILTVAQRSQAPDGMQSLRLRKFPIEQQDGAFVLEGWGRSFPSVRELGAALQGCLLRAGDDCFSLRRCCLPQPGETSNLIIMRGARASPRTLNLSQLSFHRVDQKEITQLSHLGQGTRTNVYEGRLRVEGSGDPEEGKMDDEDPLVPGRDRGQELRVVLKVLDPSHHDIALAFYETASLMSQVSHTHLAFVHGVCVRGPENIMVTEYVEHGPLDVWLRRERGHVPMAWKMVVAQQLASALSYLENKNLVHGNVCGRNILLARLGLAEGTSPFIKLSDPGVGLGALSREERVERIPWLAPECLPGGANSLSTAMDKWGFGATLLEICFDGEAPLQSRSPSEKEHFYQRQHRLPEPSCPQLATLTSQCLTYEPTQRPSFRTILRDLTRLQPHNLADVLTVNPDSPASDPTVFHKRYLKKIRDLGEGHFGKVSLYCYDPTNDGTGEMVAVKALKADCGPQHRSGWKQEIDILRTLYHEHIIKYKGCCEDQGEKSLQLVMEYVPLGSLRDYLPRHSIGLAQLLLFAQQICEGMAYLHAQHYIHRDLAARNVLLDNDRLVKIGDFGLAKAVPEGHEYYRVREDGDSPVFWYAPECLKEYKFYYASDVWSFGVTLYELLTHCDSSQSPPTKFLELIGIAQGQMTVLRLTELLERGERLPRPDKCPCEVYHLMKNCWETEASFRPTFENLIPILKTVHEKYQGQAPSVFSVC

[20] = target: Serine/threonine-protein kinase 17B (Homo sapiens) (UniProt O94768); test: Inhibition of human DRAK2 assessed as percent of control at 2000 nM by KINOMEscan assay relative to control; set-up: scale not given: the % may be the effect or the level left
[21] = target: MAP kinase-interacting serine/threonine-protein kinase 1 (Homo sapiens) (UniProt Q9BUB5); test: Inhibition of human MKNK1 assessed as percent of control at 2000 nM by KINOMEscan assay relative to control; set-up: scale not given: the % may be the effect or the level left
[22] = target: Serine/threonine-protein kinase 36 (Homo sapiens) (UniProt Q9NRP7); test: Inhibition of human STK36 assessed as percent of control at 2000 nM by KINOMEscan assay relative to control; set-up: scale not given: the % may be the effect or the level left
[23] = target: Receptor tyrosine-protein kinase erbB-2 (Homo sapiens) (UniProt P04626); test: Inhibition of human ERBB2 assessed as percent of control at 2000 nM by KINOMEscan assay relative to control; set-up: scale not given: the % may be the effect or the level left
[24] = test system: Receptor-type tyrosine-protein kinase FLT3 (Homo sapiens), P36888 [D835Y]; test: Inhibition of human FLT3 D835Y mutant assessed as percent of control at 2000 nM by KINOMEscan assay relative to control; set-up: scale not given: the % may be the effect or the level left
[25] = target: Mitogen-activated protein kinase kinase kinase kinase 3 (Homo sapiens) (UniProt Q8IVH8); test: Inhibition of human MAP4K3 assessed as percent of control at 2000 nM by KINOMEscan assay relative to control; set-up: scale not given: the % may be the effect or the level left
[26] = target: Serine/threonine-protein kinase tousled-like 1 (Homo sapiens) (UniProt Q9UKI8); test: Inhibition of human TLK1 assessed as percent of control at 2000 nM by KINOMEscan assay relative to control; set-up: scale not given: the % may be the effect or the level left
Chain of Serine/threonine-protein kinase tousled-like 1 (Homo sapiens) (Q9UKI8 whole entry): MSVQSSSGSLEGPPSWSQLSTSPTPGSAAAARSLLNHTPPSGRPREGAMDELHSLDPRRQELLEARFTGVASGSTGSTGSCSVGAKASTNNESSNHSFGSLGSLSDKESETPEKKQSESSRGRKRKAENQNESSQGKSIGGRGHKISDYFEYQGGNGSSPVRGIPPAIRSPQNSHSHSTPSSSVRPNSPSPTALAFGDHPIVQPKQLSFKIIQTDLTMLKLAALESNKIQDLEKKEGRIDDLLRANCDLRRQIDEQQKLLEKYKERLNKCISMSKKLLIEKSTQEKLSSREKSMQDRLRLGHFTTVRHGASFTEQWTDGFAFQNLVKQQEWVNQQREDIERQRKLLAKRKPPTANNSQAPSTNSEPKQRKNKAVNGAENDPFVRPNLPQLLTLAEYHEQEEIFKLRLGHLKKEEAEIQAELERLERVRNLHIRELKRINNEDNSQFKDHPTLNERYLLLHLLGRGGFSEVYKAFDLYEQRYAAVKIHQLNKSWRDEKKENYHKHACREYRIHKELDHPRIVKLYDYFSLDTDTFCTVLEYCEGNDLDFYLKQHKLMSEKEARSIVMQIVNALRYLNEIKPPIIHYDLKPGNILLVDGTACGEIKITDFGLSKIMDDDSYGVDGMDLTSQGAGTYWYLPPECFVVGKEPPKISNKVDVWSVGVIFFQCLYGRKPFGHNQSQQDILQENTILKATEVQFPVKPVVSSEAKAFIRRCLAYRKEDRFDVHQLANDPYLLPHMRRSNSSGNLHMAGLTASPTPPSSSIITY

[27] = target: Wee1-like protein kinase 2 (Homo sapiens) (UniProt P0C1S8); test: Inhibition of human WEE2 assessed as percent of control at 2000 nM by KINOMEscan assay relative to control; set-up: scale not given: the % may be the effect or the level left
[28] = target: Tyrosine-protein kinase Lyn (Homo sapiens) (UniProt P07948); test: Inhibition of human LYN assessed as percent of control at 2000 nM by KINOMEscan assay relative to control; set-up: scale not given: the % may be the effect or the level left
[29] = target: Myosin light chain kinase 2, skeletal/cardiac muscle (Homo sapiens) (UniProt Q9H1R3); test: Inhibition of human MYLK2 assessed as percent of control at 2000 nM by KINOMEscan assay relative to control; set-up: scale not given: the % may be the effect or the level left
[30] = target: RAC-beta serine/threonine-protein kinase (Homo sapiens) (UniProt P31751); test: Inhibition of human AKT2 assessed as percent of control at 2000 nM by KINOMEscan assay relative to control; set-up: scale not given: the % may be the effect or the level left
Chain of RAC-beta serine/threonine-protein kinase (Homo sapiens) (P31751 whole entry): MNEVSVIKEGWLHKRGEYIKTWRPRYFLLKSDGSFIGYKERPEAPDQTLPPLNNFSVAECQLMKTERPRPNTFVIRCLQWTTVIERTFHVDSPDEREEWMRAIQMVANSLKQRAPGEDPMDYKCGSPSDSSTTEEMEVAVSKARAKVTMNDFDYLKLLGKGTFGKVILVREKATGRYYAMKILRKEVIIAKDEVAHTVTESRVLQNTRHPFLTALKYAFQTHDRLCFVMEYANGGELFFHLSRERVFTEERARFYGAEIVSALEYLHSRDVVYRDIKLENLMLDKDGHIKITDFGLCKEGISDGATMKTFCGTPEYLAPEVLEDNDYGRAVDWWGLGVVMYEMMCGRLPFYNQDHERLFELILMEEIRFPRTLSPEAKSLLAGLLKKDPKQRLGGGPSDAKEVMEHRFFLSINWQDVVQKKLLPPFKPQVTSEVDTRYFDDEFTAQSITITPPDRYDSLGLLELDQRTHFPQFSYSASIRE

CN(C)C(=O)c1ccc(N2CCCN(c3ccnc4sc(C(N)=O)c(N)c34)CC2)cc1
Activity [1]: 100% and 91% | Activity [2]: 94% and 100% | inhibition (Myc-CaP): Active | Activity [3]: 100% and 86% | Activity [4]: 92% and 91% | Activity [5]: 100% and 95% | Activity [6]: 94% and 83% | Activity [7]: 99% and 92% | Activity [8]: 100% and 92% | Activity [9]: 94% and 95% | Activity [10]: 97% and 100% | Activity [11]: 100% and 87% | Activity [12]: 94% and 92% | Activity [13]: 100% and 97% | Activity [14]: 99% and 100% | Activity [15]: 93% and 99% | Activity [16]: 98% and 92% | Activity [17]: 25% and 12% | Activity [18]: 89% and 96% | Activity [19]: 95% and 82% | Activity [20]: 100% and 87% | Activity [21]: 94% and 79% | Activity [22]: 100% | Activity [23]: 100% and 89% | Activity [24]: 100% | Activity ([24]; INHIBITOR): 46% | Activity [25]: 91% and 95% | Activity [26]: 97% and 85% | Activity [27]: 97% and 88% | Activity [28]: 100% and 98% | Activity [29]: 100% | Activity [30]: 86% and 99%
